# Measurements as given in PubChem BioAssay (NCI).
#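 Growth conditions: 96-well plates. Treatment: test compound, 48 hours, 5 concentrations. Analysis: linear interpolation between bracketing concentrations; unreached endpoints set to highest concentration. At the TGI there is no net growth.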
# How the values were obtained:
# Assay in all cases: NCI anticancer screen, dose series, 48 h
# SN12C renal = test system: SN12C renal
# HCC-2998 colon = test system: HCC-2998 colon
# MDA-N = test system: MDA-N
# M14 melanoma = test system: M14 melanoma
# SF-268 CNS = test system: SF-268 CNS
# UACC-62 melanoma = test system: UACC-62 melanoma
# OVCAR-8 ovarian = test system: OVCAR-8 ovarian
# HCT-15 colon = test system: HCT-15 colon
# NCI-H460 lung = test system: NCI-H460 lung
# T-47D breast = test system: T-47D breast
# UO-31 renal = test system: UO-31 renal
# 786-0 renal = test system: 786-0 renal
# SF-295 CNS = test system: SF-295 CNS
# A498 renal = test system: A498 renal
# MDA-MB-435 = test system: MDA-MB-435
# ACHN renal = test system: ACHN renal
# SF-539 CNS = test system: SF-539 CNS
# CCRF-CEM leukemia = test system: CCRF-CEM leukemia
# MCF7 breast = test system: MCF7 breast
# HL-60(TB) leukemia = test system: HL-60(TB) leukemia
# SK-MEL-28 melanoma = test system: SK-MEL-28 melanoma
# EKVX NSCLC = test system: EKVX NSCLC
# U251 CNS = test system: U251 CNS
# COLO 205 colon = test system: COLO 205 colon
# A549 NSCLC = test system: A549 NSCLC
# SNB-75 CNS = test system: SNB-75 CNS
# HOP-62 NSCLC = test system: HOP-62 NSCLC
# MOLT-4 leukemia = test system: MOLT-4 leukemia
# SR leukemia = test system: SR leukemia
# NCI-H226 lung = test system: NCI-H226 lung
# RXF 393 renal = test system: RXF 393 renal
# CAKI-1 renal = test system: CAKI-1 renal
# SNB-19 CNS = test system: SNB-19 CNS
# HOP-92 NSCLC = test system: HOP-92 NSCLC
# SW-620 colon = test system: SW-620 colon
# HCT-116 colon = test system: HCT-116 colon
# DU-145 prostate = test system: DU-145 prostate
# OVCAR-3 ovarian = test system: OVCAR-3 ovarian
# OVCAR-4 ovarian = test system: OVCAR-4 ovarian
# PC-3 prostate = test system: PC-3 prostate
# SK-OV-3 ovarian = test system: SK-OV-3 ovarian
# UACC-257 melanoma = test system: UACC-257 melanoma
# BT-549 breast = test system: BT-549 breast
# KM12 colon = test system: KM12 colon
# IGROV1 ovarian = test system: IGROV1 ovarian
# NCI/ADR-RES ovarian = test system: NCI/ADR-RES ovarian
# NCI-H522 lung = test system: NCI-H522 lung
# HT29 colon = test system: HT29 colon
# RPMI-8226 leukemia = test system: RPMI-8226 leukemia
# SK-MEL-2 melanoma = test system: SK-MEL-2 melanoma
# HS 578T breast = test system: HS 578T breast
# MALME-3M melanoma = test system: MALME-3M melanoma
# SK-MEL-5 melanoma = test system: SK-MEL-5 melanoma
# OVCAR-5 ovarian = test system: OVCAR-5 ovarian
# LOX IMVI melanoma = test system: LOX IMVI melanoma
structure (smiles),measurement,setting,value
C/C(=N\NC(=O)N/N=C(\C)c1ccccn1)c1ccccn1,TGI,SN12C renal,> 100 µM
same,TGI,HCC-2998 colon,> 100 µM
same,TGI,MDA-N,> 100 µM
same,TGI,M14 melanoma,> 100 µM
same,TGI,SF-268 CNS,> 83.9 µM
same,TGI,UACC-62 melanoma,> 100 µM
same,TGI,OVCAR-8 ovarian,> 100 µM
same,TGI,HCT-15 colon,> 100 µM
same,TGI,NCI-H460 lung,> 100 µM
same,TGI,T-47D breast,> 100 µM
same,TGI,UO-31 renal,> 100 µM
same,TGI,786-0 renal,> 51.5 µM
same,TGI,SF-295 CNS,> 100 µM
same,TGI,A498 renal,> 100 µM
same,TGI,MDA-MB-435,> 100 µM
same,TGI,ACHN renal,> 100 µM
same,TGI,SF-539 CNS,3.04 µM
same,TGI,CCRF-CEM leukemia,> 100 µM
same,TGI,MCF7 breast,> 100 µM
same,TGI,HL-60(TB) leukemia,> 100 µM
same,TGI,SK-MEL-28 melanoma,> 100 µM
same,TGI,EKVX NSCLC,> 100 µM
same,TGI,U251 CNS,> 100 µM
same,TGI,COLO 205 colon,> 100 µM
same,TGI,A549 NSCLC,> 100 µM
same,TGI,SNB-75 CNS,> 100 µM
same,TGI,HOP-62 NSCLC,> 100 µM
same,TGI,MOLT-4 leukemia,> 100 µM
same,TGI,SR leukemia,> 100 µM
same,TGI,NCI-H226 lung,> 100 µM
same,TGI,RXF 393 renal,> 100 µM
same,TGI,CAKI-1 renal,> 100 µM
same,TGI,SNB-19 CNS,> 100 µM
same,TGI,HOP-92 NSCLC,> 100 µM
same,TGI,SW-620 colon,> 100 µM
same,TGI,HCT-116 colon,> 100 µM
same,TGI,DU-145 prostate,> 100 µM
same,TGI,OVCAR-3 ovarian,> 100 µM
same,TGI,OVCAR-4 ovarian,> 100 µM
same,TGI,PC-3 prostate,> 100 µM
same,TGI,SK-OV-3 ovarian,> 100 µM
same,TGI,UACC-257 melanoma,> 100 µM
same,TGI,BT-549 breast,18.2 µM
same,TGI,KM12 colon,> 100 µM
same,TGI,IGROV1 ovarian,> 100 µM
same,TGI,NCI/ADR-RES ovarian,93.6 µM
same,TGI,NCI-H522 lung,> 100 µM
same,TGI,HT29 colon,> 100 µM
same,TGI,RPMI-8226 leukemia,> 100 µM
same,TGI,SK-MEL-2 melanoma,> 100 µM
same,TGI,HS 578T breast,> 100 µM
same,TGI,MALME-3M melanoma,> 100 µM
same,TGI,SK-MEL-5 melanoma,> 47.3 µM
same,TGI,OVCAR-5 ovarian,> 100 µM
same,TGI,LOX IMVI melanoma,> 100 µM
